In patent US8598202B2, “Aryl-hydroxyethylamino-pyrimidines and triazines as modulators of fatty acid amide hydrolase” (Janssen Pharmaceutica NV, priority 2008, dated 2013) one finds IC50 data, which are given here for 14 molecules.

The target in experiment [1] is T1, Rat FAAH-1 (Rattus norvegicus, UniProt P97612).
T1 sequence (P97612 1-579): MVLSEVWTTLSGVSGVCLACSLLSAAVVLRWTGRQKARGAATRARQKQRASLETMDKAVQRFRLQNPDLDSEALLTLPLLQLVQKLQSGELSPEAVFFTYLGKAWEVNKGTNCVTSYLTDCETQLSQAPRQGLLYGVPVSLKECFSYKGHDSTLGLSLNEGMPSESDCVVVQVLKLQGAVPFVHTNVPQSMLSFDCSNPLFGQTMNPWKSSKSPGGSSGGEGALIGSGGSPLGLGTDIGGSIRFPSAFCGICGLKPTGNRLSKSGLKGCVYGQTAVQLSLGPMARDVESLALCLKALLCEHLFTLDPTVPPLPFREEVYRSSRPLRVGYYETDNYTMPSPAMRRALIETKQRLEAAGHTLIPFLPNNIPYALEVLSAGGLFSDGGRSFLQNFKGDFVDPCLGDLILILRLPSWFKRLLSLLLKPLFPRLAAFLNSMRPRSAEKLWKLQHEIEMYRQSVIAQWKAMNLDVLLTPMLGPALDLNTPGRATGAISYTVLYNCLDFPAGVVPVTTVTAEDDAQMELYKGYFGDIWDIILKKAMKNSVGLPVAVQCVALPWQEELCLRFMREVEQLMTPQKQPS
The experiment in a line: Assay Method 2: rat FAAH-1 assay, 3H-anandamide hydrolysis in homogenate of SK-N-MC cells transfected with rat FAAH.
Method: The assay mixture consisted of 50 μL of the cell homogenate, 10 μL of the test compound, and 40 μL of anandamide [1-^3H-ethanolamine] (^3H-AEA, Perkin-Elmer, 10.3 Ci/mmol), which was added last, for a final tracer concentration of 80 nM. The reaction mixture was incubated at rt for 1 h. During the incubation, 96-well Multiscreen filter plates (catalog number MAFCNOB50; Millipore, Bedford, Mass., USA) were loaded with 25 μL of activated charcoal (Multiscreen column loader, catalog number MACL09625, Millipore) and washed once with 100 μL of MeOH. […] After the 1 h incubation, 60 μL of the reaction mixture were transferred to the charcoal plates, which were then assembled on top of the DYNEX plates using Centrifuge Alignment Frames (catalog number MACF09604, Millipore). The unbound labeled ethanolamine was centrifuged through to the bottom plate (5 min at 2000 rpm), which was preloaded with the scintillant, as described above. The plates were sealed and left at rt for 1 h before counting on a Hewlett Packard TopCount.

The target of experiment [2] is T2, FAAH (Homo sapiens, UniProt O00519).
T2 sequence (O00519 1-579): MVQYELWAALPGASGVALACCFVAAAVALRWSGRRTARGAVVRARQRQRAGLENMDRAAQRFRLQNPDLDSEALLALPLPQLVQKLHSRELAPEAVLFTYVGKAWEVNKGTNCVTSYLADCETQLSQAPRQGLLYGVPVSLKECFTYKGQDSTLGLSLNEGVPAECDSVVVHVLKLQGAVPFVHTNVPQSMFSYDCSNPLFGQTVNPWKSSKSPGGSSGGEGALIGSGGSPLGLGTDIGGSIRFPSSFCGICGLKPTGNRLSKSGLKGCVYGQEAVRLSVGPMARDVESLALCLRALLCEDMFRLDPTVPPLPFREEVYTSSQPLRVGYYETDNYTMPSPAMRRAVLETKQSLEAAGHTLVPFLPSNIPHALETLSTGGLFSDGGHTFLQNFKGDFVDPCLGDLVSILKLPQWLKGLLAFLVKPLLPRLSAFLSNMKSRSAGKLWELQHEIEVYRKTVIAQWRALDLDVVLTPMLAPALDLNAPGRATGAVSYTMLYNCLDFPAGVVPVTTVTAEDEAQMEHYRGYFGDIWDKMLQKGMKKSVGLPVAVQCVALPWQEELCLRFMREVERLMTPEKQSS
The experiment in a line: Assay Method 1: FAAH assay, 3H-anandamide hydrolysis in homogenate of T84 cells or SK-N-MC cells transfected with human FAAH.

pIC50: −log10 of the molar value. Where a name gives a salt, the structure may show the parent alone. Read-outs that look alike come from different tables or passages of the source. Some results are limits rather than exact numbers.

Regarding `OC(CNc1cc(-c2ccsc2)ncn1)c1ccccc1` (stereo not shown) [CE7, 1-Phenyl-2-(6-thiophen-3-yl-pyrimidin-4-ylamino)-ethanol, reference compound], the pIC50 in experiment [1] (read-out: Assay 2 IC50, Table 2, Comparative Examples, rat FAAH-1) is under 5.00; in experiment [2] (read-out: Assay 1 IC50, Table 2, Comparative Examples, human FAAH), under 5.00.
Regarding `OC(CNc1cc(-c2ccc(Cl)cc2)ncn1)c1ccccc1` (stereo not shown) [Example 2, 2-{[6-(4-Chlorophenyl)pyrimidin-4-yl]amino}-1-phenylethanol], the figures for the negative logarithm of the IC50 (pIC50) in experiment [1] and in experiment [2] were 5.89 and 6.46, respectively.
Regarding `O=[N+]([O-])c1ccc(-c2cc(NCC(O)c3ccccc3)ncn2)cc1` (stereo not shown) [Example 5, 2-{[6-(4-Nitrophenyl)pyrimidin-4-yl]amino}-1-phenylethanol trifluoroacetic acid salt], the values for the pIC50 in experiment [1] and in experiment [2] were 6.82 and 6.88, respectively.
On the same counts, the results for `CCc1ccc(-c2cc(NCC(O)c3ccccc3)ncn2)cc1` (stereo not shown) [Example 6, 2-{[6-(4-Ethylphenyl)pyrimidin-4-yl]amino}-1-phenylethanol] are 6.63 and 7.48.
On the same counts, the results for `OC(CNc1cc(-c2ccc(Cl)c(Cl)c2)ncn1)c1ccccc1` (stereo not shown) [Example 8, 2-{[6-(3,4-Dichlorophenyl)pyrimidin-4-yl]amino}-1-phenylethanol] are 6.77 and 7.13.
The matching figures for `CCOc1ccc(-c2cc(NCC(O)c3ccccc3)ncn2)cc1` (stereo not shown) [Example 11, 2-({6-[4-(Ethyloxy)phenyl]pyrimidin-4-yl}amino)-1-phenylethanol]: 6.43 and 7.47.
`CC(C)Oc1ccc(-c2cc(NCC(O)c3ccccc3)ncn2)cc1` (stereo not shown) [Example 12, 2-[(6-{4-[(1-Methylethyl)oxy]phenyl}pyrimidin-4-yl)amino]-1-phenylethanol]: the results for the negative logarithm of the IC50 (pIC50) in experiment [1] and in experiment [2] were 6.42 and 6.73, respectively.
The matching figures for `CC(=O)c1ccc(-c2cc(NC[C@H](O)c3ccccc3)ncn2)cc1` [Example 17, 1-[4-(6-{[(2R)-2-Hydroxy-2-phenylethyl]amino}pyrimidin-4-yl)phenyl]ethanone]: 8.00 and 7.92.
On the same counts, the results for `CC(C)Oc1ccc(-c2cc(NC[C@H](O)c3ccccc3)ncn2)cc1Cl` [Example 19, (1R)-2-[(6-{3-Chloro-4-[(1-methylethyl)oxy]phenyl}pyrimidin-4-yl)amino]-1-phenylethanol] are 7.92 and 7.70.
The matching figures for `Cc1ccc(-c2cc(NC[C@H](O)c3ccccc3)ncn2)cc1F` [Example 20, (1R)-2-{[6-(3-Fluoro-4-methylphenyl)pyrimidin-4-yl]amino}-1-phenylethanol trifluoroacetic acid salt]: 6.74 and 7.49.
As to `OCc1ccc(-c2cc(NC[C@H](O)c3ccccc3)ncn2)cc1` [Example 21, (1R)-2-([6-[4-(Hydroxymethyl)phenyl]pyrimidin-4-yl]amino)-1-Phenylethanol], the figures for the pIC50 in experiment [1] and in experiment [2] were 5.82 and 6.47, respectively.
The matching figures for `O=Cc1ccc(-c2cc(NC[C@H](O)c3ccccc3)ncn2)cc1` [Example 22, 4-(6-{[(2R)-2-Hydroxy-2-phenylethyl]amino}pyrimidin-4-yl)benzaldehyde]: 6.57 and 7.09.
On the same counts, the results for `Cc1cc(-c2cc(NC[C@H](O)c3ccccc3)ncn2)ccc1Cl` [Example 26, (1R)-2-{[6-(4-Chloro-3-methylphenyl)pyrimidin-4-yl]amino}-1-phenylethanol trifluoroacetic acid salt] are 6.79 and 7.28.
The matching figures for `O[C@@H](CNc1cc(-c2ccc(Cl)c(F)c2)ncn1)c1ccccc1` [Example 27, (1R)-2-{[6-(4-Chloro-3-fluorophenyl)pyrimidin-4-yl]amino}-1-phenylethanol trifluoroacetic acid salt]: 6.92 and 7.62.
